According to US20240190880A1 (THE REGENTS OF THE UNIVERSITY OF MICHIGAN, priority 2021, published 2024):

Biological target: T1, ER (Homo sapiens, UniProt P03372)
T1 construct: host or cells: T47D and MCF7 human breast cancer cells
T1 sequence (P03372 1-595): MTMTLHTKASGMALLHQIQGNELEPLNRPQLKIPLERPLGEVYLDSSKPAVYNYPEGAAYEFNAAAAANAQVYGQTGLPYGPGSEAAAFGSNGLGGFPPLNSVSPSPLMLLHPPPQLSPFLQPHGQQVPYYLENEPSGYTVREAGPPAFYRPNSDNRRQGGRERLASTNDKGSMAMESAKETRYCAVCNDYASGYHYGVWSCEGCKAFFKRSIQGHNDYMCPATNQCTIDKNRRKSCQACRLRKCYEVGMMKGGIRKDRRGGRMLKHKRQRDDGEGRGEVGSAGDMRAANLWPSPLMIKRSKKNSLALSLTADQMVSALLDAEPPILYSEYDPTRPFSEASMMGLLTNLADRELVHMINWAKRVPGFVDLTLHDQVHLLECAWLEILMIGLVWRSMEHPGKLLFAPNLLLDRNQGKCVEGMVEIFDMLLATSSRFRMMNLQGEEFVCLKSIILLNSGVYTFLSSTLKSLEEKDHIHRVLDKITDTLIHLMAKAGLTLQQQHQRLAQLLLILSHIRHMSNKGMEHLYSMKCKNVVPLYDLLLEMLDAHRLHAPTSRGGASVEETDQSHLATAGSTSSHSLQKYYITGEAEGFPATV
Assay: ER degradation activity, in-cell western blot analysis in T47D cells
Assay type: cell-based
Details: 16 hours, Table A does not say which cell line (T47D or MCF7), read-out: Potency (DC50)
How it was run: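 T47D cells grown in DMEM with 10% FBS were treated with compounds for 16 hours at 0.5% DMSO final. ER was detected by in-cell western using 680/800 near-infrared secondary antibodies. Residual ER is given as percent of untreated and DMSO-treated wells set to 100%.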

First: C[C@@H]1Cc2c([nH]c3ccccc23)[C@@H](c2c(F)cc(N3CCN(CCN4Cc5cc6c(cc5C4)C(=O)N(C4CCC(=O)NC4=O)C6)CC3)cc2F)N1CC(F)F (stereo partly drawn) [E 54, 3-(6-(2-(4-(4-((1R,3R)-2-(2,2-difluoroethyl)-3-methyl-2,3,4,9-tetrahydro-1H-pyrido[3,4-b]indol-1-yl)-3,5-difluorophenyl)piperazin-1-yl)ethyl)-1-oxo-3,5,6,7-tetrahydropyrrolo[3,4-f]isoindol-2(1H)-yl)piperidine-2,6-dione]
Second: C[C@@H]1Cc2c([nH]c3ccccc23)[C@@H](c2c(F)cc(N3CC4(CCN(CC(=O)N5Cc6cc7c(cc6C5)C(=O)N(C5CCC(=O)NC5=O)C7)CC4)C3)cc2F)N1CC(F)F (stereo partly drawn) [E 98, 3-(6-(2-(2-(4-((1R,3R)-2-(2,2-difluoroethyl)-3-methyl-2,3,4,9-tetrahydro-1H-pyrido[3,4-b]indol-1-yl)-3,5-difluorophenyl)-2,7-diazaspiro[3.5]nonan-7-yl)acetyl)-1-oxo-3,5,6,7-tetrahydropyrrolo[3,4-f]isoindol-2(1H)-yl)piperidine-2,6-dione]
The DC50 of the first is higher: 0.01 to 0.1 µM for the first, less than 0.01 µM for the second.

`O=C1CCC(N2C(=O)c3cc4c(cc3C2=O)CN(CC(=O)N2CCC(C(=O)N3CC(Oc5ccc([C@@H]6c7ccc(O)cc7CC[C@@H]6c6ccccc6)cc5)C3)CC2)C4)C(=O)N1` (stereo partly drawn) [E 376, 2-(2,6-dioxopiperidin-3-yl)-6-(2-(4-(3-(4-((1R,2S)-6-hydroxy-2-phenyl-1,2,3,4-tetrahydronaphthalen-1-yl)phenoxy)azetidine-1-carbonyl)piperidin-1-yl)-2-oxoethyl)-6,7-dihydropyrrolo[3,4-f]isoindole-1,3(2H,5H)-dione] and `O=C1CCC(N2C(=O)c3cc4c(cc3C2=O)CN(CC2(F)CN(C(=O)C3CCN(c5ccc([C@@H]6c7ccc(O)cc7CC[C@@H]6c6ccccc6)cc5)CC3)C2)C4)C(=O)N1` (stereo partly drawn) [E 207, 2-(2,6-dioxopiperidin-3-yl)-6-((3-fluoro-1-(1-(4-((1R,2S)-6-hydroxy-2-phenyl-1,2,3,4-tetrahydronaphthalen-1-yl)phenyl)piperidine-4-carbonyl)azetidin-3-yl)methyl)-6,7-dihydropyrrolo[3,4-f]isoindole-1,3(2H,5H)-dione] cannot be ordered by DC50: greater than 0.1 µM for the first, greater than 0.1 µM for the second.

`C[C@@H]1Cc2c([nH]c3ccccc23)[C@@H](c2c(F)cc(-c3ncc(C(=O)N4CCC(N5Cc6cc7c(cc6C5)C(=O)N(C5CCC(=O)NC5=O)C7=O)CC4)cn3)cc2F)N1CC(F)F` (stereo partly drawn) [E 346, 6-(1-(2-(4-((1R,3R)-2-(2,2-difluoroethyl)-3-methyl-2,3,4,9-tetrahydro-1H-pyrido[3,4-b]indol-1-yl)-3,5-difluorophenyl)pyrimidine-5-carbonyl)piperidin-4-yl)-2-(2,6-dioxopiperidin-3-yl)-6,7-dihydropyrrolo[3,4-f]isoindole-1,3(2H,5H)-dione] and `C[C@@H]1Cc2c([nH]c3ccccc23)[C@@H](c2c(F)cc(N3CCC(CN4CCCC(N5Cc6cc7c(cc6C5)C(=O)N(C5CCC(=O)NC5=O)C7=O)CC4)CC3)cc2F)N1CC(F)F` (stereo partly drawn) [E 130, 6-(1-((1-(4-((1R,3R)-2-(2,2-difluoroethyl)-3-methyl-2,3,4,9-tetrahydro-1H-pyrido[3,4-b]indol-1-yl)-3,5-difluorophenyl)piperidin-4-yl)methyl)azepan-4-yl)-2-(2,6-dioxopiperidin-3-yl)-6,7-dihydropyrrolo[3,4-f]isoindole-1,3(2H,5H)-dione] cannot be ordered by DC50: less than 0.01 µM for the first, less than 0.01 µM for the second.

`O=C1CCC(N2C(=O)c3cc4c(cc3C2=O)CN([C@H]2CC[C@H](NC3CN(c5ccc([C@@H]6c7ccc(O)cc7CC[C@@H]6c6ccccc6)cc5)C3)CC2)C4)C(=O)N1` (stereo partly drawn) [E 341, 2-(2,6-dioxopiperidin-3-yl)-6-((1R,4r)-4-((1-(4-((1R,2S)-6-hydroxy-2-phenyl-1,2,3,4-tetrahydronaphthalen-1-yl)phenyl)azetidin-3-yl)amino)cyclohexyl)-6,7-dihydropyrrolo[3,4-f]isoindole-1,3(2H,5H)-dione] and `O=C1CCC(N2C(=O)c3cc4c(cc3C2=O)CN([C@H]2CC[C@@H](NC3CCN(c5ccc([C@@H]6c7ccc(O)cc7CC[C@@H]6c6ccccc6)cc5)CC3)CC2)C4)C(=O)N1` (stereo partly drawn) [E334, 2-(2,6-dioxopiperidin-3-yl)-6-((1S,4s)-4-((1-(4-((1R,2S)-6-hydroxy-2-phenyl-1,2,3,4-tetrahydronaphthalen-1-yl)phenyl)piperidin-4-yl)amino)cyclohexyl)-6,7-dihydropyrrolo[3,4-f]isoindole-1,3(2H,5H)-dione] cannot be ordered by DC50: greater than 0.1 µM for the first, greater than 0.1 µM for the second.

Compared with `O=C1CCC(N2C(=O)c3cc4c(cc3C2=O)CN(CC(=O)N2CCC3(C2)CN(c2ccc([C@@H]5c6ccc(O)cc6CC[C@@H]5c5ccccc5)cc2)C3)C4)C(=O)N1` (mixture of isomers) [E 17, rac-2-(2,6-dioxopiperidin-3-yl)-6-(2-(2-(4-((1R,2S)-6-hydroxy-2-phenyl-1,2,3,4-tetrahydronaphthalen-1-yl)phenyl)-2,6-diazaspiro[3.4]octan-6-yl)-2-oxoethyl)-6,7-dihydropyrrolo[3,4-f]isoindole-1,3(2H,5H)-dione], `O=C1CCC(N2Cc3cc4c(cc3C2=O)CN(C(=O)CN2CCC3(CC2)CCN(c2ccc([C@@H]5c6ccc(O)cc6CC[C@@H]5c5ccccc5)cc2)CC3)C4)C(=O)N1` (stereo partly drawn) [E 354, 3-(6-(2-(9-(4-((1R,2S)-6-hydroxy-2-phenyl-1,2,3,4-tetrahydronaphthalen-1-yl)phenyl)-3,9-diazaspiro[5.5]undecan-3-yl)acetyl)-1-oxo-3,5,6,7-tetrahydropyrrolo[3,4-f]isoindol-2(1H)-yl)piperidine-2,6-dione] is lower in DC50: 0.01 to 0.1 µM for the first, less than 0.01 µM for the second.

`O=C1CCC(N2C(=O)c3cc4c(cc3C2=O)CN([C@H]2CC[C@H](NC3CCN(c5ccc([C@@H]6c7ccc(O)cc7CC[C@@H]6c6ccccc6)cc5)CC3)CC2)C4)C(=O)N1` (stereo partly drawn) [E 335, 2-(2,6-dioxopiperidin-3-yl)-6-((1R,4r)-4-((1-(4-((1R,2S)-6-hydroxy-2-phenyl-1,2,3,4-tetrahydronaphthalen-1-yl)phenyl)piperidin-4-yl)amino)cyclohexyl)-6,7-dihydropyrrolo[3,4-f]isoindole-1,3(2H,5H)-dione] and `O=C1CCC(N2Cc3cc4c(cc3C2=O)CN(C(=O)C2CCN(CC3CCN(c5ccc([C@@H]6c7ccc(O)cc7CC[C@@H]6c6ccccc6)cc5)CC3)CC2)C4)C(=O)N1` (stereo partly drawn) [E 284, 3-(6-(1-((1-(4-((1R,2S)-6-hydroxy-2-phenyl-1,2,3,4-tetrahydronaphthalen-1-yl)phenyl)piperidin-4-yl)methyl)piperidine-4-carbonyl)-1-oxo-3,5,6,7-tetrahydropyrrolo[3,4-f]isoindol-2(1H)-yl)piperidine-2,6-dione] cannot be ordered by DC50: greater than 0.1 µM for the first, greater than 0.1 µM for the second.

`C[C@@H]1Cc2c([nH]c3ccccc23)[C@@H](c2c(F)cc(N3CCC4(CCN(CC(=O)N5Cc6cc7c(cc6C5)C(=O)N(C5CCC(=O)NC5=O)C7)CC4)C3)cc2F)N1CC(F)F` (stereo partly drawn) [E 108, 3-(6-(2-(2-(4-((1R,3R)-2-(2,2-difluoroethyl)-3-methyl-2,3,4,9-tetrahydro-1H-pyrido[3,4-b]indol-1-yl)-3,5-difluorophenyl)-2,8-diazaspiro[4.5]decan-8-yl)acetyl)-1-oxo-3,5,6,7-tetrahydropyrrolo[3,4-f]isoindol-2(1H)-yl)piperidine-2,6-dione] was tested, and the DC50 was less than 0.01 µM.

Same assay, conditions: compounds 16 hours, Table A does not say whether T47D or MCF7, read-out: Potency (DC50)

Compared with `C[C@@H]1Cc2cc(O)ccc2[C@@H](c2ccc(N3CCC4(CCN(C(=O)CN5Cc6cc7c(cc6C5)C(=O)N(C5CCC(=O)NC5=O)C7=O)CC4)CC3)cc2)N1c1ccc(F)cc1` (stereo partly drawn) [E 462, 2-(2,6-dioxopiperidin-3-yl)-6-(2-(9-(4-((1R,3R)-2-(4-fluorophenyl)-6-hydroxy-3-methyl-1,2,3,4-tetrahydroisoquinolin-1-yl)phenyl)-3,9-diazaspiro[5.5]undecan-3-yl)-2-oxoethyl)-6,7-dihydropyrrolo[3,4-f]isoindole-1,3(2H,5H)-dione], `COc1c2c(cc3c1CN(C1CCC(=O)NC1=O)C3=O)CN(CC(=O)N1CCC3(CC1)CCN(c1cc(F)c([C@@H]4c5ccc(O)cc5C[C@@H](C)N4CC(F)F)c(F)c1)CC3)C2` (stereo partly drawn) [E 461, 3-(6-(2-(9-(4-((1S,3R)-2-(2,2-difluoroethyl)-6-hydroxy-3-methyl-1,2,3,4-tetrahydroisoquinolin-1-yl)-3,5-difluorophenyl)-3,9-diazaspiro[5.5]undecan-3-yl)-2-oxoethyl)-4-methoxy-1-oxo-3,5,6,7-tetrahydropyrrolo[3,4-f]isoindol-2(1H)-yl)piperidine-2,6-dione] is lower in DC50: 0.01 to 0.1 µM for the first, less than 0.01 µM for the second.

`C[C@@H]1Cc2c(ccc3[nH]ncc23)[C@@H](c2c(F)cc(C3=CCC(C(=O)N4CCC(N5Cc6cc7c(cc6C5)C(=O)N(C5CCC(=O)NC5=O)C7=O)CC4)CC3)cc2F)N1CC(F)F` (mixture of isomers) [E 468, 6-(1-(4′-((6S,8R)-7-(2,2-difluoroethyl)-8-methyl-6,7,8,9-tetrahydro-3H-pyrazolo[4,3-f]isoquinolin-6-yl)-3′,5′-difluoro-2,3,4,5-tetrahydro-[1,1′-biphenyl]-4-carbonyl)piperidin-4-yl)-2-(2,6-dioxopiperidin-3-yl)-6,7-dihydropyrrolo[3,4-f]isoindole-1,3(2H,5H)-dione] was tested, and the DC50 was 0.01 to 0.1 µM.
